In publication PMC12915131, “Balanced Expression of the Diiron Oxygenase BioE Is Essential for Biotin Homeostasis in Elizabethkingia meningoseptica” (Advanced Science, 2025):

Key:
EmBioE = molecular target: T1, EmBioE; assay: SPR, confirmed by MST; HPLC shows conversion to pimeloyl-CoA; type: binding, Elizabethkingia meningoseptica
T1 construct: gene bioE; 6x His-tagged EmBioE

EmBioE (BioE) = molecular target: T2, EmBioE (BioE); assay: SPR (Biacore, CM5 chip); supported by urea-PAGE inhibition of C18-ACP cleavage (Ki […]); type: binding, Elizabethkingia meningoseptica
T2 construct: 6x His-tagged EmBioE

Compound | Kd (EmBioE) [µM] | Kd (EmBioE (BioE)) [µM]
CCCCCCCCCCCCCCCCCC(=O)SCCNC(=O)CCNC(=O)[C@H](O)C(C)(C)COP(=O)(O)OP(=O)(O)OC[C@H]1O[C@@H](n2cnc3c(N)ncnc32)[C@H](O)[C@@H]1OP(=O)(O)O [C18-CoA, stearoyl-CoA] | ~20.1 | 
C=CCn1c(SCC(=O)Nc2scc(-c3ccc(C)cc3)c2C(=O)OC)nnc1-c1ccc(N(C)C)cc1 [compound 466982, 466982] |  | ~14.6
